Data: US20120115895A1, “TRICYCLIC INDOLE-DERIVED SPIRO DERIVATIVES AS CRTH2 MODULATORS” (Merck Serono S.A., priority 2009, published 2012)
pIC50: −log10 of the molar value.

Columns and labels:
CRTH2 [1] = molecular target: T1, CRTH2 (Homo sapiens, UniProt Q9Y5Y4); assay: Radioligand binding Scintillation Proximity Assay ([3H]PGD2, hCRTH2-CHO cell membranes); set-up: host or cells: CHO cells
T1 sequence (Q9Y5Y4 1-395): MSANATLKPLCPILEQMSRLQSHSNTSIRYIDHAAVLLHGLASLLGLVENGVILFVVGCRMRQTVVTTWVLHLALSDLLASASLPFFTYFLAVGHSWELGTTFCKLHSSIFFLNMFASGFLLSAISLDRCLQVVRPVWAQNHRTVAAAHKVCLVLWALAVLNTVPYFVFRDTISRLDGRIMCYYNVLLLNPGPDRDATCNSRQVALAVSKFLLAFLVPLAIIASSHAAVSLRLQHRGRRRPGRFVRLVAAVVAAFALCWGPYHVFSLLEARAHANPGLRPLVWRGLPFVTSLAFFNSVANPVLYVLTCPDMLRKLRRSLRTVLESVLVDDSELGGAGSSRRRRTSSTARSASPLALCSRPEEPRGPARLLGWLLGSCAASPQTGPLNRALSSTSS
Description: Adherent CHO cells expressing hCRTH2 (Euroscreen, Belgium) were cultured in 225 cm2 cell culture flasks (Corning, USA) in 30 ml of medium. After two rinses of phosphate buffered saline (PBS), cells were harvested in 10 ml of PBS containing 1 mM EDTA, centrifuged at 500×g for 5 min at 4° C. and frozen at −80° C. The pellet was re-suspended in 50 mM Tris-HCl, pH 7.4, 2 mM EDTA, 250 mM Sucrose, containing protease inhibitor cocktail tablets, (Complete EDTA-free, Roche, Germany) and incubated 30 min at 4° C. Cells were disrupted by nitrogen cavitation (Parr Instruments, USA) at 4° C. (800 p.s.i. for 30 min), and centrifuged at 500×g for 10 min at 4° C. Pellet containing nuclei and cellular debris was discarded and supernatant was centrifuged 60 min at 4° C. at 45000×g. Membrane pellet was re-suspended in storage buffer (10 mM HEPES/KOH pH 7.4, 1 mM EDTA, 250 mM sucrose, protease inhibitor cocktail tablets) using Dounce homogenization and frozen in liquid nitrogen, and stored at −80° C.
The inhibitory activity can be investigated by a radioligand binding Scintillation Proximity Assay (SPA) (Sawyer et al., Br. J. Pharmocol 2002, 137, 1163-72). The SPA radioligand binding assay was performed at room temperature in binding buffer (10 mM HEPES/KOH pH 7.4, 10 mM MnC12, with protease inhibitor cocktail tablets), containing 1.5 nM [3H]PGD2 (Perkin Elmer), 10-50 μg/ml of hCRTH2—CHO cell membrane protein and 2 mg/ml of Wheat-germ agglutinin Scintillation Proximity Assay beads (RPNQ0001, GE-Healthcare) in a final volume of 100 μl in 96 well plates (Corning, USA). Non-specific binding was determined in the presence of 10 μM PGD2 (Cayman, USA). Competing Compounds of Formula (I) were diluted in dimethylsulphoxide so that the total volume of dimethylsulfoxide was kept constant at 1% dimethylsulphoxide (Me2SO). Serial dilutions of 100 μM to 100 pM were prepared and 10 μl each of the compounds of Formula (I) stock solutions were added to the binding assay reagents and incubated for 90 min with agitation at room temperature. Binding activity was determined by using a 1450 Micro-beta scintillation counter (Wallac, UK).

[2] = In vivo pharmacokinetic evaluation in mouse; set-up: species or system C57BL/6 female mice
Description: (§1) In order to study the pharmacokinetic (PK) profile of test compounds in vivo, Sprague Dawley male rats or C57BL/6 female mice were dosed intravenously or after oral gavage. For both species, test compounds were dosed in solution at 1 mg/kg for i.v. route (10% ethanol, 10% N,N-dimethylacetamide, 30% propylene glycol, 50% water, v/v) and in suspension at 5 mg/kg (0.5% carboxymethylcellulose suspension, containing 0.25% Tween 20 in water) for oral gavage. PK profile in rat was obtained from 3 animals per dosing route and mouse PK profile was determined from 3 animals for each time points. The volume of administration was 2 mL/kg for i.v. dosing in both species and either 5 mL/kg (rat) or 10 mL/kg (mouse) for oral gavage. Blood samples (100 µL/time point) were collected at 0.083 (5 min), 0.25, 0.5, 1, 4, 7 and 24 hours post-dose for i.v. dosing, and at 0.5, 1, 4, 7 and 24 h for oral dosing, into heparin-Li+ containing tubes. For rats, all blood samples were collected trough a catheter in the carotid artery (placed in the artery the day before the experiment), under light isoflurane anesthesia, and stored on ice until centrifugation and plasma isolation. For mouse, blood samples were collected from intracardiac puncture at sacrifice at each time point and processed as described above for the rat. Plasma samples were stored frozen until analysis (−20° C. to −70° C.). For bioanalysis, samples were processed by protein precipitation (acetonitrile, formic acid 0.1%, addition of 3 volumes) after addition of one internal standard and analysed using a sensitive and selective LC/MS/MS method. An aliquot of the resulting supernatant was subject to LC/MS/MS analysis using a reverse phase column (Waters Xterra, C8, (3.5 μm particle size, 2.1×50 mm) and a short gradient (1 min) from (Solvent A) 85% water, 15% acetonitrile and 0.1% formic acid to (Solvent B) 90% acetonitrile, 10% water and 0.1% formic acid followed by isocratic conditions of Solvent B for 3.5 min at 0.4 mL/min. Column effluent was monitored using a Sciex API 4000 triple quadrupole mass spectrometer with a Turbo V electrospray ion source. Unknown concentrations of test compounds were determined using a calibration curve ranging from 1 to 3000 ng/mL.

CRTH2 [3] = molecular target: T1, CRTH2; assay: PGD2-induced eosinophil cell shape assay in human whole blood; type: cell-based; set-up: endogenous in cells; host or cells: eosinophils in human whole blood from healthy volunteers; details: 10 nM PGD2
Description: The test compounds were diluted in dimethylsulphoxide so that the total volume of dimethylsulfoxide was kept constant at 2% dimethylsulphoxide (Me2SO). Serial dilutions of 200 μM to 0.09 μM were prepared. Samples of 90 μl of human blood from healthy volunteers (Centre de Transfusion Sanguine de Genève) were pre-incubated in polypropylene Falcon tubes (BD 352063) for 20 minutes in a water bath at 37° C. with 10 μl of diluted compounds. For CRTH2 activation, 100 μl PGD2 (Cayman 12010) at 20 nM was added (10 nM final) to each tube and cells were maintained at 37° C. For negative control cells were treated with PBS. After 10 minutes, cell activation was stopped with 120 μl Formaldehyde 10% (4% final, Fluka 41650) and cells were rested for 10 minutes at room temperature. Fixed cells were transferred into polypropylene tubes and then treated for 1 hour in a water bath at 37° C. with 2 ml of Triton—Surfact-Amps X-100 (Pierce 28314) at 0.166% (0.13% Triton final). After several washes with PBS (red cells lysed progressively during washes, two washes are necessary), cells were analyzed by flow cytometry on a FACSCalibur.

[4] = In vivo pharmacokinetic evaluation in rat; set-up: species or system Sprague Dawley male rats
Description: as §1

[5] = test system: OVA-induced eosinophil recruitment in lung; assay: OVA-induced lung eosinophilia in mice; type: in vivo, BALB/c mice; details: oral route, dose of 30 mg/Kg
Description: BALB/c mice (6-8 weeks old) were immunized with ovalbumin (10 μg i.p) on day 0 and 7. In order to elicit a local inflammatory response in the lung, mice were challenged between day's 15-17 with a nebulised solution of ovalbumin (10 μg/ml; De Vilibiss Ultraneb 2000, once daily for 30 min during the 3 days). On each separate day between 15 and 17 each animal received via oral gavage the test compound, at t−1 h and t+7 h with respect to OVA exposure at t=0 h. Eight hours after the final OVA challenge, bronchoalveolar lavage (BAL) was then carried out. Total cell numbers in the BAL fluid samples were measured using a haemocytometer. Cytospin smears of the BAL fluid samples were prepared by centrifugation at 1200 rpm for 2 min at room temperature and stained using a DiffQuik stain system (Dade Behring) for differential cell counts.

pIC50 (CRTH2 [1]; 1.5 nM [3H]PGD2, hCRTH2-CHO membranes, SPA, read-out: IC50 binding): 7.35
pIC50 (CRTH2 [1]; comparison table with (+)-Enantiomer, read-out: Binding IC50): 7.17
Cmax ([2]; female, C57BL/6, mouse, plasma, mice, po, 5 mg/Kg): 691 ng/mL
oral bioavailability in mouse ([2]; mouse, in words): significant improvement
Fz in mice ([2]; oral bioavailability, mice, 5 mg/kg po, 1 mg/kg i.v.): 39%
pIC50 (CRTH2 [3]): 6.82
Cmax ([4]; male, Sprague Dawley, rat, plasma, rats, po, 5 mg/Kg): 489 ng/mL
Fz in rats ([4]; oral bioavailability, rats, 5 mg/kg po, 1 mg/kg i.v.): 37%
oral bioavailability in rat ([4]; rat, in words): significant improvement
Structure (SMILES): CN1C(=O)N(Cc2cc(Cl)ccc2F)C(=O)C12C(=O)N(CC(=O)O)c1ccc(Cl)cc12 (single isomer, unassigned; (+)) [Example 2, (+)-[5′-chloro-1-(5-chloro-2-fluorobenzyl)-3-methyl-2,2′,5-trioxospiro[imidazolidine-4,3′-indol]-1′(2′H)-yl]acetic acid]
inhibition of OVA-induced eosinophil recruitment in lung [5]: 79%
